From patent US11510933B2, “Use of Pulsatilla chinensis extract in the preparation of drugs for treatment of viral and/or bacterial diseases” (priority 2018, dated 2022)
Marks after values point to notes of the source that are not given here.

Tests used:
[1] = test system: cow clinical endometritis; assay: treatment of cow clinical endometritis; format: in vivo, cows; details: n = 10
Experimental: Anemoside B4 injection prepared in example 3, with a concentration of 50 mg/mL; Anemoside B4 intrauterine injection prepared in example 5, with a concentration of 50 mg/mL.
Positive drug: doxycycline hydrochloride intrauterine injection (24 g/injection, produced by Zhengzhou Bairui Animal Pharmaceutical Co., Ltd., batch No.: 170901).
130 cows with disease were randomly divided into 13 groups, 10 cows for each group.
The cows selected in this experiment were all those with clinical endometritis. During the experiment, the temperature, spirit and diet of the cows were normal.
Administration by […] injection: Administrating anemoside B4 by intramulscular injection, twice per day, one in the morning and another in the evening, for successive four days;
Administration by intrauterine infusion: administrating anemoside B4 and positive drug doxycycline hydrochloride by intrauterine infusion, once every other day, for 4 times.
A blank control group was set up in different administration routes, and the same dose of normal saline was administered.

canine parvovirus = assay: treatment of canine parvovirus; format: in vivo, dogs; design: White blood cell count: unit not given here; details: 14 days, n = 10
Experimental: (§1) Anemoside B4 injection prepared in example 3, with a concentration of 50 mg/mL.
Dogs suffering from canine parvovirus are cases received by various pet hospitals in Chengdu.
In the early, dogs have high temperature and vomit violently. The vomit changes from white to yellow, and finally to green, with a small amount of blood streak; eyes' conjunctival congestion and tears; liking drinking water and vomiting after drinking; fecal jets are like tomato sauce, smelly and unpleasant; preferring to lie down; the number of white blood cells dropped sharply, together with severe dehydration, heart failure, and shock to death.
(§2) Anemoside B4 injection was intravenously injected, 2 mL/time in low-dose group, 4 mL/time in medium-dose group, 8 mL/time in high-dose group, once a day; anemoside B4 injection was intramuscularly injected, 1 mL/time in low-dose group, 2 mL/time in the middle-dose group, 4 mL/time in the high-dose group, twice a day; the treatment was kept for 14 days.

feline parvovirus = assay: treatment of feline parvovirus; format: in vivo, cats; design: White blood cell count: unit not given here; details: 14 days, n = 10
Experimental: as §1
Cats suffering from feline parvovirus are cases received by various pet hospitals in Chengdu.
Cats occasionally having fever, severe vomiting, and diarrhea; the stool changing from gray to yellow and finally to milky white, accompanied by jelly-like mucus; stools liking tomato sauce, smelly and unpleasant; having a lying prone; the number of white blood cells dropping sharply, cold limbs, highly depressed spirit, then shock to death.
as §2

canine distemper = assay: treatment of canine distemper; format: in vivo, dogs; details: for Cure / Death: 14 days, 10 dogs treated
Experimental: as §1
Dogs suffering from canine distemper are cases received by various pet hospitals in Chengdu.
According to the clinical symptoms, canine distemper can be divided into early, middle and late stages.
The vomit is mucus or yellow liquid, while the stool is dark brown or covered with mucus. As the progress of the disease course, dogs with canine distemper often develop secondary bacterial infections due to their decreased resistance.
as §2

canine renal failure = assay: treatment of canine renal failure; format: in vivo, dogs; details: 14 days, n = 10
[2] = high-dose, intramuscular injection 30 mL/time (50 mg/mL), twice per day, 4 days
[3] = high-dose, intrauterine infusion 30 mL/time (50 mg/mL), once every other day, 4 times
[4] = high-dose, intravenous injection 60 mL/time (50 mg/mL)
[5] = low-dose, intramuscular injection 10 mL/time (50 mg/mL), twice per day, 4 days
[6] = low-dose, intrauterine infusion 10 mL/time (50 mg/mL), once every other day, 4 times
[7] = low-dose, intravenous injection 20 mL/time (50 mg/mL)
[8] = medium-dose, intramuscular injection 20 mL/time (50 mg/mL), twice per day, 4 days
[9] = medium-dose, intrauterine infusion 20 mL/time (50 mg/mL), once every other day, 4 times
[10] = medium-dose, intravenous injection 40 mL/time (50 mg/mL)
[11] = high-dose, intramuscular injection 4 mL/time (50 mg/mL), twice a day
[12] = high-dose, intravenous injection 8 mL/time (50 mg/mL), once a day
[13] = low-dose, intramuscular injection 1 mL/time (50 mg/mL), twice a day
[14] = low-dose, intravenous injection 2 mL/time (50 mg/mL), once a day
[15] = medium-dose, intramuscular injection 2 mL/time (50 mg/mL), twice a day
[16] = medium-dose, intravenous injection 4 mL/time (50 mg/mL), once a day

Structure (SMILES): C=C(C)[C@@H]1CC[C@]2(C(=O)O[C@@H]3O[C@H](CO[C@@H]4O[C@H](CO)[C@@H](O[C@@H]5O[C@@H](C)[C@H](O)[C@@H](O)[C@H]5O)[C@H](O)[C@H]4O)[C@@H](O)[C@H](O)[C@H]3O)CC[C@]3(C)[C@H](CC[C@@H]4[C@@]5(C)CC[C@H](O[C@@H]6OC[C@H](O)[C@H](O)[C@H]6O[C@@H]6O[C@@H](C)[C@H](O)[C@@H](O)[C@H]6O)[C@@](C)(CO)[C@@H]5CC[C@]43C)[C@H]12 [anemoside B4]
- Mean time of first estrus after medication [1, 2]: 25 ± 5.5 days
- Oestrus rate [1, 2]: 65* %
- Pregnancy rate in three estrous periods after delivery [1, 2]: 56* %
- Mean time of first estrus after medication [1, 3]: 23 ± 6.2 days
- Oestrus rate [1, 3]: 78* %
- Pregnancy rate in three estrous periods after delivery [1, 3]: 75* %
- Mean time of first estrus after medication [1, 4]: 24 ± 5.2 days
- Oestrus rate [1, 4]: 68* %
- Pregnancy rate in three estrous periods after delivery [1, 4]: 58* %
- Mean time of first estrus after medication [1, 5]: 27 ± 5.8 days
- Oestrus rate [1, 5]: 54%
- Pregnancy rate in three estrous periods after delivery [1, 5]: 42%
- Mean time of first estrus after medication [1, 6]: 25 ± 5.4 days
- Oestrus rate [1, 6]: 64%
- Pregnancy rate in three estrous periods after delivery [1, 6]: 52%
- Mean time of first estrus after medication [1, 7]: 27 ± 6.4 days
- Oestrus rate [1, 7]: 57%
- Pregnancy rate in three estrous periods after delivery [1, 7]: 46%
- Mean time of first estrus after medication [1, 8]: 26 ± 4.6 days
- Oestrus rate [1, 8]: 60%
- Pregnancy rate in three estrous periods after delivery [1, 8]: 52%
- Mean time of first estrus after medication [1, 9]: 24 ± 7.3 days
- Oestrus rate [1, 9]: 74* %
- Pregnancy rate in three estrous periods after delivery [1, 9]: 70* %
- Mean time of first estrus after medication [1, 10]: 26 ± 4.3 days
- Oestrus rate [1, 10]: 63%
- Pregnancy rate in three estrous periods after delivery [1, 10]: 52%
- Body temperature (canine parvovirus; [11]): 37.8 ± 0.4 °C
- Mortality rate (canine parvovirus; [11]): 50%
- White blood cell count (canine parvovirus; [11]): 6.2 ± 0.5 ×10^9
- Body temperature (canine parvovirus; [12]): 37.4 ± 0.2 °C
- Mortality rate (canine parvovirus; [12]): 30%
- White blood cell count (canine parvovirus; [12]): 8.2 ± 0.7 ×10^9
- Body temperature (canine parvovirus; [13]): 39.2 ± 0.5 °C
- Mortality rate (canine parvovirus; [13]): 80%
- White blood cell count (canine parvovirus; [13]): 3.3 ± 0.3 ×10^9
- Body temperature (canine parvovirus; [14]): 38.2 ± 0.5 °C
- Mortality rate (canine parvovirus; [14]): 50%
- White blood cell count (canine parvovirus; [14]): 6.3 ± 0.4 ×10^9
- Body temperature (canine parvovirus; [15]): 38.4 ± 0.3 °C
- Mortality rate (canine parvovirus; [15]): 60%
- White blood cell count (canine parvovirus; [15]): 4.6 ± 0.8 ×10^9
- Body temperature (canine parvovirus; [16]): 37.6 ± 0.3 °C
- Mortality rate (canine parvovirus; [16]): 40%
- White blood cell count (canine parvovirus; [16]): 7.6 ±0.6 ×10^9
- Mortality rate (feline parvovirus; [11]): 50%
- White blood cell count (feline parvovirus; [11]): 9.1 ± 0.5 ×10^9
- Mortality rate (feline parvovirus; [12]): 40%
- White blood cell count (feline parvovirus; [12]): 9.3 ± 0.9 ×10^9
- Mortality rate (feline parvovirus; [13]): 90%
- White blood cell count (feline parvovirus; [13]): 4.7 ± 0.3 ×10^9
- Mortality rate (feline parvovirus; [14]): 80%
- White blood cell count (feline parvovirus; [14]): 7.7 ± 0.4 ×10^9
- Mortality rate (feline parvovirus; [15]): 70%
- White blood cell count (feline parvovirus; [15]): 7.8 ± 0.6 ×10^9
- Mortality rate (feline parvovirus; [16]): 60%
- White blood cell count (feline parvovirus; [16]): 8.8 ± 0.7 ×10^9
- therapeutic effect on canine distemper (conclusion in words) (canine distemper; dogs): a better therapeutic effect on canine distemper
- Cure (canine distemper; [11]): 5 dog
- Death (canine distemper; [11]): 5 dog
- Cure (canine distemper; [12]): 6 dog
- Death (canine distemper; [12]): 4 dog
- Cure (canine distemper; [13]): 3 dog
- Death (canine distemper; [13]): 7 dog
- Cure (canine distemper; [14]): 4 dog
- Death (canine distemper; [14]): 6 dog
- Cure (canine distemper; [15]): 4 dog
- Death (canine distemper; [15]): 6 dog
- Cure (canine distemper; [16]): 5 dog
- Death (canine distemper; [16]): 5 dog
- Body temperature (canine renal failure; [11]): 38.5 ± 0.2 °C
- Creatinine (canine renal failure; [11]): 100 ± 30 µmol/L
- Inorganic phosphous (canine renal failure; [11]): 1.4 ± 0.08 mmol/L
- Mortality rate (canine renal failure; [11]): 40%
- Urea (canine renal failure; [11]): 14.2 ± 0.4 mmol/L
- Body temperature (canine renal failure; [12]): 38.6 ± 0.4 °C
- Creatinine (canine renal failure; [12]): 109 ± 20 µmol/L
- Inorganic phosphous (canine renal failure; [12]): 0.9 ± 0.06 mmol/L
- Mortality rate (canine renal failure; [12]): 20%
- Urea (canine renal failure; [12]): 8.7 ± 0.3 mmol/L
- Body temperature (canine renal failure; [13]): 37.8 ± 0.3 °C
- Creatinine (canine renal failure; [13]): 130 ± 19 µmol/L
- Inorganic phosphous (canine renal failure; [13]): 1.6 ± 0.02 mmol/L
- Mortality rate (canine renal failure; [13]): 60%
- Urea (canine renal failure; [13]): 20.8 ± 0.5 mmol/L
- Body temperature (canine renal failure; [14]): 38.3 ± 0.5 °C
- Creatinine (canine renal failure; [14]): 117 ± 25 µmol/L
- Inorganic phosphous (canine renal failure; [14]): 1.1 ± 0.05 mmol/L
- Mortality rate (canine renal failure; [14]): 40%
- Urea (canine renal failure; [14]): 11.8 ± 0.6 mmol/L
- Body temperature (canine renal failure; [15]): 38.2 ± 0.4 °C
- Creatinine (canine renal failure; [15]): 120 ± 26 µmol/L
- Inorganic phosphous (canine renal failure; [15]): 2.0 ± 0.03 mmol/L
- Mortality rate (canine renal failure; [15]): 50%
- Urea (canine renal failure; [15]): 17.5 ± 0.7 mmol/L
- Body temperature (canine renal failure; [16]): 38.5 ± 0.3 °C
- Creatinine (canine renal failure; [16]): 115 ± 12 µmol/L
- Inorganic phosphous (canine renal failure; [16]): 1.5 ± 0.04 mmol/L
- Mortality rate (canine renal failure; [16]): 30%
- Urea (canine renal failure; [16]): 9.9 ± 0.8 mmol/L
